Measured values: patent US20230013669A1, “Antibacterial Treatment Using a Cannabinoid and an Active Agent” (priority 2019, published 2023)
Where “and” joins values, the source holds several entries; their conditions need not be identical. Equal values may be shown once.

Columns and labels:
Assay type in all cases: cell-based
[1] = system: Acinetobacter baumannii ATCC 19606 (GN_034); experiment: MIC micro-broth dilution assay (Example 1 method); settings: GN_034
Method: (§5) The plates were covered and incubated at 37° C. for 18-20 h.
(§6) Optical density was read at 600 nm (OD600) using Tecan M1000 Pro Spectrophotometer. […] Analysis was performed using Microsoft Excel.

[2] = system: Escherichia coli ATCC 25922 (GN_001); experiment: MIC micro-broth dilution assay (Example 1 method); settings: GN_001
Method: as §5, §6

[3] = system: Acinetobacter baumannii 03.021.1 (GN_038), Colistin resistant; experiment: MIC micro-broth dilution assay (Example 1 method); settings: for Minimum Inhibitory Concentration (MIC): replicates, listed as MCC_000636
Method: (§1) Analysis was performed using Microsoft Excel.

[4] = system: Acinetobacter baumannii 03.021.1 (GN_039), Colistin resistant; experiment: MIC micro-broth dilution assay (Example 1 method); settings: for Minimum Inhibitory Concentration (MIC): replicates, listed as MCC_000636
Method: as §1

[5] = system: Escherichia coli HS71 (GN_110), CTX-M; experiment: MIC micro-broth dilution assay (Example 1 method); settings: Example 9 Table 35, compound alone, replicates
Method: as §1

[6] = system: Enterobacter cloacae CI Patercon BoxNo: 79 (GN_016), MDR; experiment: MIC micro-broth dilution assay (Example 1 method); settings: for Minimum Inhibitory Concentration (MIC): replicates, listed as MCC_000636
Method: as §1

[7] = system: Pseudomonas aeruginosa FADDI-PA067 (GN_177), Polymyxin resistant; experiment: MIC micro-broth dilution assay (Example 1 method); settings: GN_177
Method: as §1

[8] = system: Klebsiella pneumoniae BAA-2146 (GN_045), NDM-1; experiment: MIC micro-broth dilution assay (Example 1 method); settings: Example 9 Table 35, compound alone, replicates, listed as MCC_000636
Method: as §1

[9] = system: Pseudomonas aeruginosa ATCC 27853 (GN_042); experiment: MIC micro-broth dilution assay (Example 1 method); settings: GN_042
Method: as §5, §6

[10] = system: Acinetobacter baumannii ATCC 19606 Type Strain (GN_034); experiment: MIC broth microdilution, 96-well, visual reading (Example 11); settings: Example 11 Table 41; GN_034; n=4 replicates
Method: (§2) The experiment was performed to investigate the antimicrobial activity of cannabidiol (CBD) against an LPS deficient strain (GN_237 Acinetobacter baumannii, IpxA mutant; Lipid A deficient; obtained by colistin selection from base strain ATCC 19606) and its parent strain (GN_034, Acinetobacter baumannii, ATCC 19606).
(§3) All plates had flat bottom wells and were covered with low-evaporation lids.
(§4) Two biological replicates ×2 technical replicates were conducted on separate days (final n=4). Inhibition of bacterial growth was determined visually, where the MIC was recorded as the lowest compound concentration with no visible growth.

[11] = system: Acinetobacter baumannii AL1851, IpxA mutant; Lipid A deficient (GN_237); experiment: as above
Method: as §2, §3, §4

[12] = Example 1 Table 3, compound alone, replicates, listed as MCC_000636
[13] = Example 6 Table 23, compound alone, replicates, listed as MCC_000636
[14] = Example 8 Table 31, compound alone
[15] = Example 9 Table 35, compound alone

Which “Minimal Inhibitory Concentration (MIC)” value [1, 12] does the source give for Polymyxin B here?
The value was 1 µg/mL and 0.5 µg/mL.

What about the “Minimum Inhibitory Concentration (MIC)” value [1, 13] of the same substance?
Its value is 0.25 µg/mL and 0.125 µg/mL and 2 µg/mL and 1 µg/mL.

What about the “MIC of Polymyxin B” value ([1]; Example 6 Table 24) of the same substance?
Its value is 1 µg/mL and 2 µg/mL.

And the “Minimal Inhibitory Concentration (MIC)” value [2, 12]?
The value was 1 µg/mL and 0.5 µg/mL.

What about the “Minimum Inhibitory Concentration (MIC)” value [2, 13] of the same substance?
Its value is 0.25 μg/mL (2×) and 0.5 μg/mL and 1 μg/mL.

What about the “MIC of Polymyxin B” value ([2]; Example 6 Table 24) of the same substance?
Its value is 1 µg/mL.

And the “Minimum Inhibitory Concentration (MIC)” value [3, 14]?
Its value is 0.125 μg/mL (3×) and 0.25 μg/mL.

What about the “MIC of MCC_00636” value ([3]; Example 8 Table 32) of the same substance?
Its value is 1 µg/mL.

What about the “Minimum Inhibitory Concentration (MIC)” value [3, 15] of the same substance?
Its value is 0.125 μg/mL (3×) and 0.25 μg/mL.

And the “Minimum Inhibitory Concentration (MIC)” value [4, 14]?
The value was 0.5 μg/mL and 0.25 μg/mL (3×).

What about the “MIC of MCC_00636” value ([4]; Example 8 Table 32) of the same substance?
The value was 1 µg/mL.

And the “Minimum Inhibitory Concentration (MIC)” value [4, 15]?
The value was 0.5 μg/mL and 0.25 μg/mL (3×).

And the “Minimum Inhibitory Concentration (MIC)” value [5]?
The value was 0.0625 µg/mL.

And the “Minimum Inhibitory Concentration (MIC)” value [6, 14]?
The value was 16 μg/mL and 8 μg/mL (3×).

And the “MIC of MCC_00636” value ([6]; Example 8 Table 32)?
The value was 8 µg/mL.

What about the “Minimum Inhibitory Concentration (MIC)” value [6, 15] of the same substance?
The value was 16 μg/mL and 8 μg/mL (3×).

And the “Minimum Inhibitory Concentration (MIC)” value ([7]; Example 8 Table 31, compound alone, replicates)?
The value was 2 µg/mL.

And the “MIC of MCC_00636” value ([7]; Example 8 Table 32)?
The value was 2 µg/mL.

And the “Minimum Inhibitory Concentration (MIC)” value [8]?
The value was 0.5 μg/mL and 0.25 μg/mL (3×).

And the “Minimal Inhibitory Concentration (MIC)” value ([9]; Example 1 Table 3, compound alone, replicates)?
The value was 1 µg/mL.

And the “Minimum Inhibitory Concentration (MIC)” value [9, 13]?
Its value is 0.5 μg/mL (2×) and 2 μg/mL (2×).

And the “MIC of Polymyxin B” value ([9]; Example 6 Table 24)?
Its value is 2 µg/mL.

What about the “MIC (Test results)” value [10] of the same substance?
Its value is greater than 128 µg/mL.

And the “activity alone” value ([11]; Example 11, Lipid A deficient GN_237)?
The value was “resistant”.

What about the “MIC (Test results)” value ([11]; Example 11 Table 41, GN_237, n=4 replicates) of the same substance?
Its value is 128 µg/mL.
